Reference: BindingDB's records for doi:10.7270/Q2RB7351 (Technical University of Gdansk, 1997)
pIC50, pKi: −log10 of the molar value.

Target: Glutamine--fructose-6-phosphate aminotransferase [isomerizing] (Candida albicans (strain SC5314 / ATCC MYA-2876), UniProt P53704)
Assay: Enzyme Assay
Conditions: pH 6.85
Text: Two assays of GlcN-6-P synthase activity were used 1)determination of GlcN-6_P formation by the modified Elson-Morgan procedure and 2) continuous quantitation of glutamate in a coupled assay with glutamate dehydrogenase in the presence of acetylpyridine adenine dinucleotide.

Glutamine--fructose-6-phosphate aminotransferase [isomerizing], sequence (P53704 whole entry): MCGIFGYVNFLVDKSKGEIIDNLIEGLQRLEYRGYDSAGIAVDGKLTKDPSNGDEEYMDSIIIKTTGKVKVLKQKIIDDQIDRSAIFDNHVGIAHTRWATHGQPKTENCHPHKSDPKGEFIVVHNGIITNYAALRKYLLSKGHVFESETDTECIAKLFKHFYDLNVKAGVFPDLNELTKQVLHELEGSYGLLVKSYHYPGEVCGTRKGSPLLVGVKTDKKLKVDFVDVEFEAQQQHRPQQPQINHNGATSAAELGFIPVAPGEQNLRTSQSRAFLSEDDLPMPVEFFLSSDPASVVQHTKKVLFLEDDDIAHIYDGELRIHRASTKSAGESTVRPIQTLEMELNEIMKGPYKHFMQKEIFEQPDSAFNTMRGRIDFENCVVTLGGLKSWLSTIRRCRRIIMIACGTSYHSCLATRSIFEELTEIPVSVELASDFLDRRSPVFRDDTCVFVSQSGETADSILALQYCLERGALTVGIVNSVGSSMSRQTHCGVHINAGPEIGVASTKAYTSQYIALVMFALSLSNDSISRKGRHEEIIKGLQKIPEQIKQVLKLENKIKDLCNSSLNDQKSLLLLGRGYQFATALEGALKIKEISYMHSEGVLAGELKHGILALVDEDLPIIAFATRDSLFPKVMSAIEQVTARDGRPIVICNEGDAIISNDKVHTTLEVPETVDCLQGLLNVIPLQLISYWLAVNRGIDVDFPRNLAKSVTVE

Row | SMILES | pIC50 | pKi
1 | N[C@@H](CCP(=O)(O)O)C(=O)O | 1.59 | 1.92
2 | COC(=O)C(N)CCS(C)(=O)=O (racemic) [GlcN-6-P synthase inhibitor, 11 (racemic mixture)] | < 1.30 | 
3 | COC(=O)C(N)CNS(C)(=O)=O (racemic) [GlcN-6-P synthase inhibitor, 12 (racemic mixture)] | < 1.30 | 
4 | COC(=O)C(N)CCS(N)(=O)=O (racemic) [GlcN-6-P synthase inhibitor, 14 (racemic mixture)] | 2.26 | 2.55
5 | CCN(CC)S(=O)(=O)CCC(N)C(=O)OC (racemic) [GlcN-6-P synthase inhibitor, 15 (racemic mixture)] | 2.80 | 3.22
6 | COC(=O)C(N)CCP(=O)(OC)OC [GlcN-6-P synthase inhibitor, 2 (racemic mixture)] | < 1.30 | 
7 | COP(=O)(CCC(N)C(=O)O)OC [GlcN-6-P synthase inhibitor, 3 (racemic mixture)] | < 1.30 | 
8 | COC(=O)C(N)CCP(=O)(O)OC [GlcN-6-P synthase inhibitor, 4 (racemic mixture)] | 2.59 | 2.92
9 | CO[P@@](=O)(O)CC[C@H](N)C(=O)O [GlcN-6-P synthase inhibitor, 5 (racemic mixture)] | 2.70 | 3.05
10 | COC(=O)C(N)CCP(N)(=O)OC [GlcN-6-P synthase inhibitor, 6 (racemic mixture)] | 1.60 | 1.96
11 | CCNP(=O)(CCC(N)C(=O)OC)OC [GlcN-6-P synthase inhibitor, 7 (racemic mixture)] | 2.11 | 2.36
12 | COC(=O)C(N)CCP(=O)(OC)N(C)C [GlcN-6-P synthase inhibitor, 8 (racemic mixture)] | 2.36 | 2.89
13 | CCN(CC)P(=O)(CCC(N)C(=O)OC)OC [GlcN-6-P synthase inhibitor, 9 (racemic mixture)] | 2.44 | 3.03
14 | COC(=O)C(N)CCS(C)(=N)=O [GlcN-6-P synthase inhibitor, 13 (racemic mixture)] | 2.55 | 2.82
